Assays:
hMYO-hERG cells = test: SetuBlue cell viability (cell proliferation) assay, fluorometric, on hMYO-hERG cells; type: cell-based, human
Protocol: (§1) Ninety-six (96) well plate(s) were seeded with hMYO-hERG cells containing approximately 1×10^4 cells/well. The plates were first incubated for 24 hours at 37° C., 5% CO2, followed by incubation for 48 hours at 28° C., 5% CO2. The wells were then treated with compound(s) of interest for 48 hours at standard cell cultural conditions. A negative control medium without cells was included to determine background signal.
(§2) The cells were then assayed for toxicity using a SetuBlue™ Cell Proliferation Assay Kit (Fluorometric) (BioIntersect, Catalog #F6009-2500-A). This kit uses a Blue indicator dye, Resazurin, to measure the metabolic capacity of cells. Resazurin is a non-fluorescent, cell permeable and non-toxic compound. Viable cells efficiently reduce the Blue indicator dye to resorufin, which is highly fluorescent and an indicator of cell viability.
(§3) The SetuBlue cell proliferation assay was performed as follows. The old media was aspirated and replaced with fresh 100 μl medium containing 10% volume of SetuBlue reagent containing the Blue indicator dye. The plates were incubated using standard cultural conditions for 1-4 hrs. The plates were than shaken for 10-20 seconds before recording fluorescence at 530/590 nm in PerkinElmer EnSpire® multimode plate reader. The relative fluorescence unit (“RFU”) value of each control well was subtracted from all RFU value to yield corrected RFU values. The corrected RFU values at 530/590 nm (Y axis, Log10 scale) were plotted against concentration of test compound (X axis). The CC50 value were determined by locating the X-axis value corresponding to one-half the maximum (plateau) RFU value using GraphPad Prism software.

[1] = as above; type: cell-based, human; settings: human; hMYO-hERG cells, 48 hours treatment, fluorescence 530/590 nm, GraphPad Prism
Protocol: as §1, §2, §3

hERG = hERG (Homo sapiens, UniProt Q12809); settings: literature statement; cited from earlier work
hERG, sequence (Q12809 whole entry): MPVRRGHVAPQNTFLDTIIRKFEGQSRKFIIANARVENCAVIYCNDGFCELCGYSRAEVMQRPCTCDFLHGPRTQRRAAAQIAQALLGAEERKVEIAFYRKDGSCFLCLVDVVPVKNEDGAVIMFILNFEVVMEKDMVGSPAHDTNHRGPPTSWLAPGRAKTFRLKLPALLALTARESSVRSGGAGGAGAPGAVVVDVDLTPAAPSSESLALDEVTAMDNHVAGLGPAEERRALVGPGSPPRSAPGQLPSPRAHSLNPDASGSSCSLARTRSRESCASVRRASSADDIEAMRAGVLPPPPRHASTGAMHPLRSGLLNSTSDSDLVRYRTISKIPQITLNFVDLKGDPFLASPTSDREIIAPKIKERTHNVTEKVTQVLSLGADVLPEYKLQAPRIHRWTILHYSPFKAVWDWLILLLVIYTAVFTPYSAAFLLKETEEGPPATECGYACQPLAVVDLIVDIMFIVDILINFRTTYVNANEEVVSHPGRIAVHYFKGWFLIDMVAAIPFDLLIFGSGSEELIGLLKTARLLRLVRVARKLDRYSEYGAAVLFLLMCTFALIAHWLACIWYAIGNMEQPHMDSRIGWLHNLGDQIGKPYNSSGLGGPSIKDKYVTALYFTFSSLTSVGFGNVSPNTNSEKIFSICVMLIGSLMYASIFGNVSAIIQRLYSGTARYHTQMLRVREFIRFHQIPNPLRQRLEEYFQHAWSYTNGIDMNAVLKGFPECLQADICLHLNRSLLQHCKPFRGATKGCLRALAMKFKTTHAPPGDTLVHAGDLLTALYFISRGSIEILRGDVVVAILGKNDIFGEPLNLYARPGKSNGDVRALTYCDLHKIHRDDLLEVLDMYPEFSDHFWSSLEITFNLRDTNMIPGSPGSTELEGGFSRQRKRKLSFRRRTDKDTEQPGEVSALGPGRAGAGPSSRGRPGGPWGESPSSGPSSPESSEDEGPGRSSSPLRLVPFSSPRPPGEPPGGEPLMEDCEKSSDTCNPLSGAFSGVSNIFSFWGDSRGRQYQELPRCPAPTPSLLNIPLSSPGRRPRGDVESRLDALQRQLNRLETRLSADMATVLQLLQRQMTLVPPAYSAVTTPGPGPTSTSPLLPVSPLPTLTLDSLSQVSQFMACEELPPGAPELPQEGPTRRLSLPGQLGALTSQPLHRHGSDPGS

## C=C[C@H]1C[N@@]2CC[C@H]1C[C@@H]2[C@@H](O)c1ccnc2ccc(OC)cc12 [quinidine]
hMYO-hERG cells; at concentrations as high as 400 μM, compared to control vehicle at 400 μM
  cardiotoxicity on the hMYO-hERG cells: not significantly cardiotoxic

## COc1cccc2c1C(=O)c1c(O)c3c(c(O)c1C2=O)C[C@@](O)(C(=O)CO)C[C@@H]3O[C@H]1C[C@H](N)[C@H](O)[C@H](C)O1 [doxorubicin]
hMYO-hERG cells; hMYO-hERG cells, 48 hours treatment, FIG. 12A
  concentrations at which cardiotoxic on the hMYO-hERG cell line: above 50 μM
[1]
  CC50 at 48 h: 42.3 µM
hERG
  cardiotoxicity (known): long-term cardiotoxicity
  hERG inhibitory activity (known): only slight effects on hERG

— patent publication US20230235290A1, “RECOMBINANT CARDIOMYOCYTES AND CARDIOMYOCYTE CELL LINES EXPRESSING HERG” (The Governors of the University of Alberta, priority 2016, published 2023)
